Measurements published in PubChem BioAssay (NCI).
Several values for one entry are separate records, joined by “and”; a condition that tells them apart may be missing. Equal entries are not always repeated.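 Five compound concentrations were applied to cells in 96-well plates for 48 hours; endpoints were derived by simple linear interpolation of the resulting dose-response curve. GI50: concentration for 50% inhibition of growth. TGI denotes the concentration required for complete inhibition of growth.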

What was measured:
Experiment in all cases: growth of human tumour cells (NCI), 48 h
[1] = system: SK-MEL-2 melanoma
[2] = system: OVCAR-3 ovarian
[3] = system: RPMI-8226 leukemia
[4] = system: NCI-H226 lung
[5] = system: IGROV1 ovarian
[6] = system: K-562 leukemia
[7] = system: SW-620 colon
[8] = system: M14 melanoma
[9] = system: 786-0 renal
[10] = system: HS 578T breast

| SMILES | TGI [1] | TGI [2] | TGI [3] | TGI [4] | TGI [5] | TGI [6] | TGI [7] | TGI [8] | TGI [9] | GI50 [1] | GI50 [2] | GI50 [3] | GI50 [4] | GI50 [5] | GI50 [6] | GI50 [7] | GI50 [8] | GI50 [10] | TGI [10] | GI50 [9] |
| --- | --- | --- | --- | --- | --- | --- | --- | --- | --- | --- | --- | --- | --- | --- | --- | --- | --- | --- | --- | --- |
| CC(=O)NC1C(OCc2ccccc2)OC(CO)C(O)C1OC(C)C(=O)N[C@@H](C)C(=O)N[C@H](CCC(=O)OCCNc1c2ccccc2nc2cccc([N+](=O)[O-])c12)C(N)=O (stereo partly specified) | 0.00414 µM | 0.00427 µM | > 0.1 µM | 0.0217 µM | 0.0679 µM and 0.022 µM | > 0.1 µM | 0.00283 µM | 0.00251 µM | 0.00335 µM and 0.00671 µM |  |  |  |  |  |  |  |  |  |  |  |
| Cn1nc(-c2ccc(Cl)cc2)nc2c(=O)n(C)c(=O)nc1-2 | 9.29 µM | 1.2 µM | 2.23 µM | 5.83 µM | 3.67 µM | 3.22 µM | 6.46 µM | 1.41 µM | 9.65 µM | 1.5 µM | 0.275 µM | 0.886 µM | 2.38 µM | 0.842 µM | 1.17 µM | 1.4 µM | 0.75 µM | 1.35 µM | 3.51 µM | 1.43 µM |
| Cn1c(=O)c(NC(=O)C(Cl)(Cl)Cl)nc2ccccc21 | > 100 µM | > 100 µM | > 100 µM | > 100 µM | > 100 µM | > 100 µM | > 100 µM | > 100 µM | > 100 µM |  |  |  |  |  |  |  |  |  |  |  |
| Nc1c(O)cc(N=C2C(=O)C=CC=C2C(=O)O)c(O)c1C(=O)O | > 91.2 µM | > 100 µM | > 100 µM | > 100 µM | > 100 µM | > 100 µM | > 100 µM | > 59.2 µM | > 100 µM |  |  |  |  |  |  |  |  |  |  |  |
| CCOc1ccc2c(c1)[n+]([O-])c(-c1ccc(Br)cc1)c(N)[n+]2[O-] | > 100 µM | > 100 µM | > 100 µM | > 100 µM | > 100 µM | > 100 µM | > 100 µM | > 100 µM | > 100 µM |  |  |  |  |  |  |  |  |  |  |  |
| C[N+](C)(C)CC1CCC/C1=N/O (stereo unspecified) | > 100 µM | > 100 µM | 47 µM | > 100 µM | > 100 µM | 44.6 µM | 19.5 µM | > 100 µM | 44.5 µM |  |  |  |  |  |  |  |  |  |  |  |
| C#CC[N+](C)(CC#C)CC#C | > 100 µM | > 100 µM | > 100 µM |  | > 100 µM | > 100 µM | > 100 µM | > 100 µM | > 100 µM |  |  |  |  |  |  |  |  |  |  |  |
| COc1cc(-c2cc(-c3ccc(Nc4ccnc5cc(Cl)ccc45)cc3)nc(N3CCOCC3)n2)cc(OC)c1OC | 48 µM | 3.67 µM | 5.02 µM | 38.2 µM | 4.03 µM | 10.4 µM | 3.45 µM |  | 4.81 µM | 11.8 µM | 1.89 µM | 1.57 µM | 11.4 µM | 1.91 µM | 0.882 µM | 1.28 µM |  | 2.25 µM | 5.35 µM | 2.08 µM |
| CC(=O)OC1=CC2=CC[C@H]3[C@@H]4CCC(=O)[C@@]4(C)CC(=O)[C@]3(S)[C@@]2(C)CC1 | > 100 µM | 69.3 µM | 53.5 µM |  | > 100 µM | 76.7 µM | > 100 µM | > 100 µM | 87 µM |  |  |  |  |  |  |  |  |  | 74.6 µM |  |
| COC(=O)C1=C(c2ccc(OC)c(OC)c2)OC(c2cc(OC)c(OC)c(OC)c2)C1 (stereo unspecified) | > 100 µM | > 100 µM | > 100 µM | > 100 µM | > 100 µM | > 100 µM | > 100 µM | > 100 µM | 74.4 µM |  |  |  |  |  |  |  |  |  |  |  |
| CN(COC(=O)c1ccccc1)c1nc(N(C)COC(=O)c2ccccc2)nc(N(C)COC(=O)c2ccccc2)n1 |  | > 100 µM | > 100 µM | > 100 µM | > 100 µM | > 100 µM | > 100 µM | > 100 µM | 46.5 µM |  |  |  |  |  |  |  |  |  | > 100 µM |  |
| COC(=O)/C(=N/Nc1cccc(Cl)c1)C(C(=O)C(=O)Nc1cccc(Cl)c1C)c1nc2ccccc2nc1C (stereo unspecified) | > 100 µM | > 100 µM | > 100 µM |  | > 100 µM | > 100 µM | > 100 µM | > 100 µM | > 100 µM |  |  |  |  |  |  |  |  |  |  |  |
| CN(C)c1nnnn1-c1c(N)n(C)c(=O)n(C)c1=O | > 100 µM | > 100 µM | > 100 µM | > 100 µM | > 100 µM | > 100 µM | > 100 µM |  | > 100 µM |  |  |  |  |  |  |  |  |  |  |  |
| Cc1noc2c1C(=O)CCC2 | > 100 µM | > 100 µM | > 100 µM | > 100 µM |  | > 100 µM | > 100 µM | > 100 µM | > 100 µM |  |  |  |  |  |  |  |  |  |  |  |
| COC(=O)C(=CNC(N)=O)C(=O)OC | > 100 µM | > 100 µM | > 100 µM |  | > 100 µM | > 100 µM | > 100 µM | > 100 µM | > 100 µM |  |  |  |  |  |  |  |  |  | > 100 µM |  |
| Clc1ccc(-c2csc(Nc3cccc(-c4csc(-c5ccccc5)n4)c3)n2)cc1 | 26.1 µM | 32.4 µM | > 50 µM |  | 39 µM | 16.3 µM | 28.8 µM | 24.1 µM | 21.1 µM | 10.6 µM | 11.4 µM | 19.2 µM |  | 13.5 µM | 7.11 µM | 12.2 µM | 11.6 µM | 20.6 µM | > 50 µM | 10.8 µM |
| CS(=O)(=O)NNS(=O)(=O)c1ccccc1 | > 100 µM |  | > 100 µM | > 100 µM | > 100 µM | > 100 µM | > 100 µM | > 100 µM | > 100 µM |  |  |  |  |  |  |  |  |  |  |  |
| COC(=O)CCC1CCc2c(OC)ccc(OC)c2C1=O (stereo unspecified) | > 100 µM | > 100 µM | > 100 µM |  | > 100 µM | > 100 µM | > 100 µM | > 100 µM | > 100 µM |  |  |  |  |  |  |  |  |  |  |  |
| COc1ccc2c(c1)CC[C@@H]1[C@@H]2CC[C@]2(C)[C@@H](NC(=O)/C=C/c3ccc(O)c(O)c3)CC[C@@H]12 | 11.7 µM | 22.7 µM | 9.79 µM | 6.45 µM | 12 µM |  | 25 µM | 6.98 µM | 5.48 µM | 2.77 µM | 10.6 µM | 1.08 µM | 2.34 µM | 1.98 µM |  | 5.55 µM | 2.26 µM | 18.5 µM | 58.4 µM | 2.34 µM |
| CN=C(NC(=S)N(C)C)N(C)C | > 100 µM |  | > 100 µM | > 100 µM | > 100 µM | > 100 µM | > 100 µM | > 100 µM | > 100 µM |  |  |  |  |  |  |  |  |  |  |  |
